Broadly, the IC50 is the concentration needed to halve the response being measured. A lower IC50 goes with greater potency. The term kinetic solubility denotes the concentration staying in solution when a stock, usually in DMSO, is diluted into the medium. For orientation: half-life means how long it takes for the measured level to halve. Higher therefore signals slow loss. What is called AUC is the area under the concentration-time curve, a measure of exposure. Read a high AUC as more exposure. As a reminder, the bioavailability is the share of a dose that reaches the circulation, judged against a reference dose that is usually intravenous. For orientation: clearance means the rate of elimination divided by the concentration. Read a high clearance as a high capacity for elimination. What is called Cmax is the peak of the concentration-time curve.

In brackets after ≈: the same amount, converted by molar mass. A value given as a limit tells only on which side of the number the result lay.

This is an account of results in ChEMBL document CHEMBL4433235, “Discovery of piperazic acid peptide deformylase inhibitors with in vivo activity for respiratory tract and skin infections” (Bioorg Med Chem Lett, 2019).

In data set [1] the test system is Streptococcus pneumoniae. Put plainly: Antimicrobial activity against Streptococcus pneumoniae 1629. The format is functional.
The nature of data set [2]: Inhibition of Streptococcus pneumoniae PDF by fluorescence detection assay.
Data set [3] in a line: Solubility of compound by chemiluminescent nitrogen detection assay. The format is physicochemical.
Data set [4] deals with Staphylococcus aureus. Briefly: Antimicrobial activity against Staphylococcus aureus Oxford. The format is functional.
Data set [5] is described as follows: Chromatographic hydrophobicity index, log D of compound at pH 7.4. The format is physicochemical. Conditions: buffer.
Data set [6] deals with T1, Peptide deformylase (Staphylococcus aureus, UniProt P68826).
T1 sequence (P68826 whole entry): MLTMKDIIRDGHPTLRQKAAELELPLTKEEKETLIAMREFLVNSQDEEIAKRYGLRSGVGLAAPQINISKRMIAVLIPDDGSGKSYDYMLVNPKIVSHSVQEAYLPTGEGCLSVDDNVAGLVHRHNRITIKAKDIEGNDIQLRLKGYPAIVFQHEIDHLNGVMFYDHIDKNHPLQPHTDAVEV
Briefly: Inhibition of Staphylococcus aureus PDF by fluorescence detection assay.

The test system of data set [7] is Haemophilus influenzae. Put plainly: Antimicrobial activity against Haemophilus influenzae Q1. The format is functional.
Data set [8] can be described thus: Inhibition of Haemophilus influenzae PDF by fluorescence detection assay.
Data set [9] relates to Staphylococcus aureus. Briefly: Antimicrobial activity against Staphylococcus aureus. The format is functional.
For data set [10], the system named is Haemophilus influenzae. Briefly: Antimicrobial activity against Haemophilus influenzae. The format is functional.
Data set [11] relates to Streptococcus pneumoniae. Briefly: Antimicrobial activity against Streptococcus pneumoniae. The format is functional.
In data set [12] the target is T1, Peptide deformylase. Briefly: Inhibition of Staphylococcus aureus PDF by absorbance detection assay.
A short description of data set [13]: Inhibition of Streptococcus pneumoniae PDF by absorbance detection assay.
The nature of data set [14]: Inhibition of Haemophilus influenzae PDF by absorbance detection assay.
A short description of data set [15]: Half life in rat at 5 mg/kg, po. The format is ADME, organism-based. Conditions: in vivo.
The nature of data set [16]: AUC in rat at 5 mg/kg, po. The settings on record: in vivo. The format is ADME, organism-based.
A short description of data set [17]: Volume of distribution at steady state in rat at 3 mg/kg, iv. The settings on record: in vivo, read-out: Vdss. The format is ADME, organism-based.
The nature of data set [18]: Oral bioavailability in rat at 5 mg/kg. The format is ADME, organism-based. Conditions: in vivo.
The nature of data set [19]: Clearance in rat at 3 mg/kg, iv. The format is ADME, organism-based. The settings on record: in vivo.
A short description of data set [20]: Half life in rat at 3 mg/kg, iv. The format is ADME, organism-based. The settings on record: in vivo.
Data set [21] can be described thus: Cmax in rat at 5 mg/kg, po. The format is ADME, organism-based. Also on record: dose 5 mg/kg, route oral. The settings on record: in vivo.
The nature of data set [22]: AUC in rat at 3 mg/kg, iv. The format is ADME, organism-based. The settings on record: in vivo.

As for `CN1CCN(c2cncc(NC(=O)[C@@H]3CCCNN3C(=O)[C@H](CC3CCCC3)CN(O)C=O)n2)CC1`, the MIC against Streptococcus pneumoniae [1] was found to be 4 µg/mL (≈ 7.96 µM); against Staphylococcus aureus [4], 16 µg/mL (≈ 31.8 µM); against Haemophilus influenzae [7], 2 µg/mL (≈ 3.98 µM). Also, the values for the IC50 (in data set [2]; on Peptide deformylase [6]) were 2 nM and 10 nM, respectively. The same compound showed a solubility (kinetic) in data set [3] of more than 359 µM. In data set [5], the CHI was 2.57.
As to `CN1CCN(c2cc(NC(=O)[C@@H]3CCCNN3C(=O)[C@H](CC3CCCC3)CN(O)C=O)ncn2)CC1`, the MIC was found to be 0.25 µg/mL (≈ 0.497 µM) with Streptococcus pneumoniae [1], 0.5 µg/mL (≈ 0.995 µM) in the data set with Staphylococcus aureus [4] and 2 µg/mL (≈ 3.98 µM) against Haemophilus influenzae [7]. Also, the concentration for half-maximal inhibition (IC50) in [2] was 1 nM; in [8], 25 nM; at Peptide deformylase [6], 3 nM. In data set [3], this compound gave a solubility (kinetic) of more than 573 µM. The CHI in data set [5] was 2.7. Also, the MIC90 against Staphylococcus aureus [9] worked out at 0.5 µg/mL (≈ 0.995 µM); against Haemophilus influenzae [10], 2 µg/mL (≈ 3.98 µM); in the data set on Streptococcus pneumoniae [11] it was 0.25 µg/mL (≈ 0.497 µM).
In the case of `O=CN(O)C[C@@H](CC1CCCC1)C(=O)N1NCCC[C@H]1C(=O)Nc1ccncn1`, the MIC in the data set with Streptococcus pneumoniae [1] was 2 µg/mL (≈ 4.94 µM); against Staphylococcus aureus [4], 2 µg/mL (≈ 4.94 µM); against Haemophilus influenzae [7] it was 1 µg/mL (≈ 2.47 µM). Further, the IC50 amounted to 2 nM against Peptide deformylase [12], 0.3 nM in data set [13] and 6 nM in data set [14]. In addition, the solubility (kinetic) in data set [3] was more than 464 µM. Besides, in data set [5], the CHI came to 2.7. The MIC90 came out at 1 µg/mL (≈ 2.47 µM) against Staphylococcus aureus [9], 2 µg/mL (≈ 4.94 µM) in the data set on Haemophilus influenzae [10] and 2 µg/mL (≈ 4.94 µM) in the data set on Streptococcus pneumoniae [11].
Take `CN(C)c1cncc(NC(=O)[C@@H]2CCCNN2C(=O)[C@H](CC2CCCC2)CN(O)C=O)n1`: the MIC against Streptococcus pneumoniae [1], in the data set with Staphylococcus aureus [4] and in the data set on Haemophilus influenzae [7] was 1 µg/mL (≈ 2.23 µM) in each case. In addition, the 50% inhibitory concentration (IC50) was determined as 0.79 nM in data set [2], 16 nM in data set [8] and 5 nM against Peptide deformylase [6]. Besides, the half-life was 10 h in [15] and 7 h in [20]. Also, the figures for the exposure (AUC) in data set [16] and in data set [22] were 169 ng·h/mL and 685 ng·h/mL, respectively. In data set [17], the Vd is 13 L/kg. The compound also came in with a bioavailability in data set [18] of 15%. Moreover, the solubility (kinetic) in data set [3] is more than 515 µM. The CHI in data set [5] was found to be 3.65. In [19], this compound registered a clearance of 73 mL/min/kg. Also, the highest concentration (Cmax) in [21] was 53 ng/mL.
On to `O=CN(O)C[C@@H](CC1CCCC1)C(=O)N1NCCC[C@H]1C(=O)Nc1ccc(F)cn1`, for which the MIC in the data set with Streptococcus pneumoniae [1] was found to be 1 µg/mL (≈ 2.37 µM); against Staphylococcus aureus [4], 0.5 µg/mL (≈ 1.19 µM); in the data set with Haemophilus influenzae [7], 0.5 µg/mL (≈ 1.19 µM). Besides, the results for the IC50 (on Peptide deformylase [12]; in data set [13]) were 2 nM and 0.6 nM, respectively. Further, the solubility (kinetic) in [3] was more than 739 µM. The CHI in data set [5] stood at 4.13. Moreover, the MIC90 with Staphylococcus aureus [9] was found to be 1 µg/mL (≈ 2.37 µM); in the data set on Haemophilus influenzae [10], 2 µg/mL (≈ 4.75 µM); in the data set on Streptococcus pneumoniae [11], 2 µg/mL (≈ 4.75 µM).
As for `CCCNC(=O)[C@@H]1CCCNN1C(=O)[C@H](CC1CCCC1)CN(O)C=O`, the values for the MIC against Streptococcus pneumoniae [1], against Staphylococcus aureus [4] and in the data set on Haemophilus influenzae [7] were 4 µg/mL (≈ 10.9 µM), 4 µg/mL (≈ 10.9 µM) and 0.5 µg/mL (≈ 1.36 µM), respectively. Moreover, the IC50 on Peptide deformylase [12] is 11 nM; in data set [13], 3 nM; in [14], 5 nM. In addition, the kinetic solubility in data set [3] is more than 544 µM. The compound also registered a CHI in data set [5] of 3.19.
As to `O=CN(O)C[C@@H](CC1CCCC1)C(=O)N1NCCC[C@H]1C(=O)Nc1cnccn1`, the MIC in the data set with Streptococcus pneumoniae [1] is 8 µg/mL (≈ 19.8 µM); in the data set with Staphylococcus aureus [4], 2 µg/mL (≈ 4.94 µM); against Haemophilus influenzae [7], 0.25 µg/mL (≈ 0.618 µM). For the same compound, the concentration for half-maximal inhibition (IC50) against Peptide deformylase [12] came out at 1 nM; in data set [13], 0.3 nM; in [14], 3 nM. In data set [3], this compound returned a kinetic solubility of more than 586 µM. This compound also showed a CHI in [5] of 2.87.
For the compound `O=CN(O)C[C@@H](CC1CCCC1)C(=O)N1NCCC[C@H]1C(=O)Nc1cccnn1`, the MIC in the data set on Streptococcus pneumoniae [1] stood at 4 µg/mL (≈ 9.89 µM); against Staphylococcus aureus [4] it was 1 µg/mL (≈ 2.47 µM); against Haemophilus influenzae [7] it was 0.5 µg/mL (≈ 1.24 µM). In addition, the IC50 at Peptide deformylase [12] was 2 nM; in data set [13], 0.6 nM; in data set [14], 4 nM. The compound also returned a solubility (kinetic) in data set [3] of 303 µM (≈ 123 µg/mL). In addition, the CHI in [5] was 2.69.
With `O=CN(O)C[C@@H](CC1CCCC1)C(=O)N1NCCC[C@H]1C(=O)N1CCCCC1`, the results for the MIC in the data set with Streptococcus pneumoniae [1], with Staphylococcus aureus [4] and in the data set with Haemophilus influenzae [7] were 4 µg/mL (≈ 10.1 µM), 1 µg/mL (≈ 2.53 µM) and 2 µg/mL (≈ 5.07 µM), respectively. The IC50 on Peptide deformylase [12] amounted to 6 nM; in data set [13] it was 2 nM; in data set [14] it was 8 nM. Further, the kinetic solubility in [3] was more than 739 µM. In data set [5], this compound returned a CHI of 3.3.
As for `Cc1ccc(NC(=O)[C@@H]2CCCNN2C(=O)[C@H](CC2CCCC2)CN(O)C=O)nc1`, the results for the MIC with Streptococcus pneumoniae [1], in the data set with Staphylococcus aureus [4] and in the data set on Haemophilus influenzae [7] were 2 µg/mL (≈ 4.79 µM), 1 µg/mL (≈ 2.4 µM) and 1 µg/mL (≈ 2.4 µM), respectively. Also, the half-maximal inhibitory concentration (IC50) in data set [2] was found to be 0.6 nM; in [8] it was 25 nM; on Peptide deformylase [6] it was 2 nM. This compound also displayed a solubility (kinetic) in data set [3] of more than 565 µM. Besides, the CHI in [5] is recorded as 4.1. In addition, the MIC90 with Staphylococcus aureus [9] came to 1 µg/mL (≈ 2.4 µM); with Haemophilus influenzae [10], 4 µg/mL (≈ 9.58 µM); against Streptococcus pneumoniae [11], 2 µg/mL (≈ 4.79 µM).
